Measurements taken from ChEMBL document CHEMBL4190267, “Discovery of potent molecular chimera (CM358) to treat human metastatic melanoma” (Eur J Med Chem, 2017).
Calls of active or inactive are those of the source. The calls are words filed in the database; no cut-off is given here.

Experiments:
PC-3 [1] = assay: Growth inhibition of human PC3 cells up to 25 uM cotreated with camptothecin measured after 24 hrs by XTT assay; assay type: functional, cell-based
MDA-MB-231 [2] = assay: Growth inhibition of human MDA-MB-231 cells up to 25 uM cotreated with camptothecin measured after 24 hrs by XTT assay; assay type: functional, cell-based
WM 266-4 [3] = assay: Growth inhibition of human WM266.4 cells up to 25 uM cotreated with camptothecin measured after 24 hrs by XTT assay; assay type: functional, cell-based
A 172 [4] = assay: Growth inhibition of human A172 cells up to 25 uM cotreated with camptothecin measured after 24 hrs by XTT assay; assay type: functional, cell-based
NCI-H1299 [5] = assay: Growth inhibition of human NCI-H1299 cells up to 25 uM cotreated with camptothecin measured after 24 hrs by XTT assay; assay type: functional, cell-based
PC-3 [6] = assay: Growth inhibition of human PC3 cells up to 25 uM measured after 24 hrs by XTT assay; assay type: functional, cell-based
MDA-MB-231 [7] = assay: Growth inhibition of human MDA-MB-231 cells up to 25 uM measured after 24 hrs by XTT assay; assay type: functional, cell-based
WM 266-4 [8] = assay: Growth inhibition of human WM266.4 cells up to 25 uM measured after 24 hrs by XTT assay; assay type: functional, cell-based
A 172 [9] = assay: Growth inhibition of human A172 cells up to 25 uM measured after 24 hrs by XTT assay; assay type: functional, cell-based
NCI-H1299 [10] = assay: Growth inhibition of human NCI-H1299 cells up to 25 uM measured after 24 hrs by XTT assay; assay type: functional, cell-based
WM 266-4 [11] = assay: Growth inhibition of human WM266.4 cells up to 25 uM measured up to 96 hrs by XTT assay; assay type: functional, cell-based
PC-3 [12] = assay: Growth inhibition of human PC3 cells preincubated for 6 hrs followed compound washout measured after 24 hrs by XTT assay; assay type: functional
PC-3 [13] = assay: Growth inhibition of human PC3 cells preincubated for 6 hrs cotreated with chlorambucil followed compound washout measured after 24 hrs by XTT assay; assay type: functional
MDA-MB-231 [14] = assay: Growth inhibition of human MDA-MB-231 cells preincubated for 6 hrs followed compound washout measured after 24 hrs by XTT assay; assay type: functional
MDA-MB-231 [15] = assay: Growth inhibition of human MDA-MB-231 cells preincubated for 6 hrs cotreated with chlorambucil followed compound washout measured after 24 hrs by XTT assay; assay type: functional
WM 266-4 [16] = assay: Growth inhibition of human WM266.4 cells preincubated for 6 hrs followed compound washout measured after 24 hrs by XTT assay; assay type: functional
WM 266-4 [17] = assay: Growth inhibition of human WM266.4 cells preincubated for 6 hrs cotreated with chlorambucil followed compound washout measured after 24 hrs by XTT assay; assay type: functional
A 172 [18] = assay: Growth inhibition of human A172 cells preincubated for 6 hrs followed compound washout measured after 24 hrs by XTT assay; assay type: functional
A 172 [19] = assay: Growth inhibition of human A172 cells preincubated for 6 hrs cotreated with chlorambucil followed compound washout measured after 24 hrs by XTT assay; assay type: functional
NCI-H1299 [20] = assay: Growth inhibition of human NCI-H1299 cells preincubated for 6 hrs followed compound washout measured after 24 hrs by XTT assay; assay type: functional
NCI-H1299 [21] = assay: Growth inhibition of human NCI-H1299 cells preincubated for 6 hrs cotreated with chlorambucil followed compound washout measured after 24 hrs by XTT assay; assay type: functional
WM 266-4 [22] = assay: Cell cycle arrest in human WM266.4 cells assessed as accumulation at G1 phase at 10 uM cotreated with chlorambucil after 2 hrs by propidium iodide staining based flow cytometry (reference value: 59%); assay type: functional
WM 266-4 [23] = assay: Cell cycle arrest in human WM266.4 cells assessed as accumulation at S phase at 10 uM cotreated with chlorambucil after 2 hrs by propidium iodide staining based flow cytometry (reference value: 27%); assay type: functional
WM 266-4 [24] = assay: Cell cycle arrest in human WM266.4 cells assessed as accumulation at G2 phase at 10 uM cotreated with chlorambucil after 2 hrs by propidium iodide staining based flow cytometry (reference value: 11%); assay type: functional
WM 266-4 [25] = assay: Cell cycle arrest in human WM266.4 cells assessed as accumulation at G1 phase at 10 uM cotreated with chlorambucil after 8 hrs by propidium iodide staining based flow cytometry (reference value: 59%); assay type: functional
WM 266-4 [26] = assay: Cell cycle arrest in human WM266.4 cells assessed as accumulation at S phase at 10 uM cotreated with chlorambucil after 8 hrs by propidium iodide staining based flow cytometry (reference value: 27%); assay type: functional
WM 266-4 [27] = assay: Cell cycle arrest in human WM266.4 cells assessed as accumulation at G2 phase at 10 uM cotreated with chlorambucil after 8 hrs by propidium iodide staining based flow cytometry (reference value: 11%); assay type: functional
WM 266-4 [28] = assay: Cell cycle arrest in human WM266.4 cells assessed as accumulation at G1 phase at 10 uM cotreated with chlorambucil after 24 hrs by propidium iodide staining based flow cytometry (reference value: 59%); assay type: functional
WM 266-4 [29] = assay: Cell cycle arrest in human WM266.4 cells assessed as accumulation at S phase at 10 uM cotreated with chlorambucil after 24 hrs by propidium iodide staining based flow cytometry (reference value: 27%); assay type: functional
WM 266-4 [30] = assay: Cell cycle arrest in human WM266.4 cells assessed as accumulation at G2 phase at 10 uM cotreated with chlorambucil after 24 hrs by propidium iodide staining based flow cytometry (reference value: 11%); assay type: functional
[31] = biological target: DNA topoisomerase 2-alpha (Homo sapiens) (UniProt P11388); assay: Inhibition of human topoisomerase-2alpha assessed as reduction in enzyme-mediated decatenation at 100 uM using kinetoplast DNA as substrate after 25 mins by ethidium bromide staining based agarose gel electrophoresis method
Sequence of DNA topoisomerase 2-alpha (Homo sapiens) (P11388 whole entry): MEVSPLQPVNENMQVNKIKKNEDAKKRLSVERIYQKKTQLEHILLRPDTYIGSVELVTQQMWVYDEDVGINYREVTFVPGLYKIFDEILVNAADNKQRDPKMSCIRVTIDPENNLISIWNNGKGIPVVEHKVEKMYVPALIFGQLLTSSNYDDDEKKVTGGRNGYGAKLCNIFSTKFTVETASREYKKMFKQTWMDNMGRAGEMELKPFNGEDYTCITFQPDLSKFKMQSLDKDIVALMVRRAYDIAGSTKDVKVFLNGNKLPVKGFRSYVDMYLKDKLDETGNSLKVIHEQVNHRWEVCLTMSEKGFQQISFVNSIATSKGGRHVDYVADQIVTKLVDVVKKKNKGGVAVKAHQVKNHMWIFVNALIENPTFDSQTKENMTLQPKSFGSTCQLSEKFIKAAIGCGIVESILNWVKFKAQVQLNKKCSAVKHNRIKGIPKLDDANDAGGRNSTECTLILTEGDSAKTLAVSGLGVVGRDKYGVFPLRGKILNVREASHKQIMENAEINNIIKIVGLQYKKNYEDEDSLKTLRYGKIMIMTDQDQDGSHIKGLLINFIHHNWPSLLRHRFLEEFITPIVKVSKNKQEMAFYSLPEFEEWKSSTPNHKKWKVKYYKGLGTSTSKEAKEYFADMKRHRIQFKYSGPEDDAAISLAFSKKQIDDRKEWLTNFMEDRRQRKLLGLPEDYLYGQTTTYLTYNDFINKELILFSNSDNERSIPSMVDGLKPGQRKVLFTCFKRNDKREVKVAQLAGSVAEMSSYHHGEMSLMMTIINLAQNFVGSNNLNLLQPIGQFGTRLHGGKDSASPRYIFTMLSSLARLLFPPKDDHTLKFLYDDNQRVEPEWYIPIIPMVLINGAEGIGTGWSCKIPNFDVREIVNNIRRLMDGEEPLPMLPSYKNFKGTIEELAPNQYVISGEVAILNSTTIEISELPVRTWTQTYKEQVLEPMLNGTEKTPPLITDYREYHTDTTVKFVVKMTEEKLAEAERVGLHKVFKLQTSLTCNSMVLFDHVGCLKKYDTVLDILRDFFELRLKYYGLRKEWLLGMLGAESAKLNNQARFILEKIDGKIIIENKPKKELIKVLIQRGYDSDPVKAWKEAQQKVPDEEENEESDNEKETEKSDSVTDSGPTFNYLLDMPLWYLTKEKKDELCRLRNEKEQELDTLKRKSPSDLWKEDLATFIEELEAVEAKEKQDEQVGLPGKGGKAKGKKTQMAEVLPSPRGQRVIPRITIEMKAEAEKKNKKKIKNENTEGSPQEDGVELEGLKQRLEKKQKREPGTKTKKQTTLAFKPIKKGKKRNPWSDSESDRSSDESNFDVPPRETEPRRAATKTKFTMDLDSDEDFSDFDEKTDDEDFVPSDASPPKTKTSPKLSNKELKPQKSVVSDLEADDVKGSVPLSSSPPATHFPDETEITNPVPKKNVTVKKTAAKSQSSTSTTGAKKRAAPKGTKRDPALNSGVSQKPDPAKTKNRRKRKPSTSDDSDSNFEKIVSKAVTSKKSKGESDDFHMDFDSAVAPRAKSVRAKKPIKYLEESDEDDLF

[32] = biological target: DNA topoisomerase 2-alpha (Homo sapiens) (UniProt P11388); assay: Inhibition of human topoisomerase-2alpha assessed as reduction in enzyme-mediated decatenation at 25 uM using kinetoplast DNA as substrate after 25 mins by ethidium bromide staining based agarose gel electrophoresis method
WM 266-4 [33] = assay: (§1) Antitumor activity against human WM266.4 cells xenografted in athymic Foxn1 nu mouse assessed as tumor growth inhibition at 10 mg/kg, ip cotreated with chlorambucil administered once daily for 7 days followed by resting period of 2 days repeated for 4 weeks starting from 5 days post tumor inoculation; assay type: functional, organism-based
WM 266-4 [34] = assay: as §1, with “for 3” for “for 7”, “of 4” for “of 2”; assay type: functional, organism-based
Mus musculus [35] = assay: Toxicity in athymic Foxn1 nu mouse xenografted with human WM266.4 cells assessed as body weight loss at 10 mg/kg, ip cotreated with chlorambucil administered once daily for 7 days followed by resting period of 2 days repeated for 4 weeks starting from 5 days post tumor inoculation; assay type: organism-based; conditions: in vivo
Mus musculus [36] = assay: Toxicity in athymic Foxn1 nu mouse xenografted with human WM266.4 cells assessed as body weight loss at 10 mg/kg, ip cotreated with chlorambucil administered once daily for 3 days followed by resting period of 4 days repeated for 4 weeks starting from 5 days post tumor inoculation; assay type: organism-based; conditions: in vivo

Which “growth inhibition (GI)” value (PC-3 [1]) does the source give for COc1cc2c(c(OC)c1OC)-c1ccc(OC)c(=O)cc1[C@@H](NC(C)=O)CC2 here?
The value was “Active”.

And the “growth inhibition (GI)” value (MDA-MB-231 [2])?
Its value is “Active”.

What about the “growth inhibition (GI)” value (WM 266-4 [3]) of the same compound?
Its value is “Active”.

And the “growth inhibition (GI)” value (A 172 [4])?
Its value is “Active”.

And the “growth inhibition (GI)” value (NCI-H1299 [5])?
The value was “Active”.

CC[C@@]1(OC(=O)N[C@H]2CCc3cc(OC)c(OC)c(OC)c3-c3ccc(OC)c(=O)cc32)C(=O)OCc2c1cc1n(c2=O)Cc2cc3ccccc3nc2-1 was tested. Which “growth inhibition (GI)” value (PC-3 [6]) did it give?
Its value is “inactive”.

And the “growth inhibition (GI)” value (MDA-MB-231 [7])?
Its value is “inactive”.

What about the “growth inhibition (GI)” value (WM 266-4 [8]) of the same compound?
Its value is “inactive”.

What about the “growth inhibition (GI)” value (A 172 [9]) of the same compound?
Its value is “inactive”.

And the “growth inhibition (GI)” value (NCI-H1299 [10])?
Its value is “inactive”.

What about the “growth inhibition (GI)” value (WM 266-4 [11]) of the same compound?
The value was “inactive”.

What does the source list for CN(C)CCN1C(=O)c2cccc3cc(N)cc(c23)C1=O [AMONAFIDE]?
GI50 (PC-3 [12]): > 25 µM; GI50 (PC-3 [13]): > 25 µM; GI50 (MDA-MB-231 [14]): > 25 µM; GI50 (MDA-MB-231 [15]): > 25 µM; GI50 (WM 266-4 [16]): > 25 µM; GI50 (WM 266-4 [17]): > 25 µM; GI50 (A 172 [18]): > 25 µM; GI50 (A 172 [19]): > 25 µM; GI50 (NCI-H1299 [20]): > 25 µM; GI50 (NCI-H1299 [21]): > 25 µM; Activity (WM 266-4 [22]): 63.5%; Activity (WM 266-4 [23]): 26%; Activity (WM 266-4 [24]): 9.8%; Activity (WM 266-4 [25]): 29%; Activity (WM 266-4 [26]): 44.7%; Activity (WM 266-4 [27]): 23%; Activity (WM 266-4 [28]): 35%; Activity (WM 266-4 [29]): 39%; Activity (WM 266-4 [30]): 26%; inhibition [31]: Active; inhibition [32]: inactive; TGI (WM 266-4 [33]): inactive; TGI (WM 266-4 [34]): inactive; Activity (Mus musculus [35]): Toxic; Activity (Mus musculus [36]): Toxic

For Nc1ccn([C@@H]2O[C@H](COC(=O)CCCc3ccc(N(CCCl)CCCl)cc3)[C@@H](O)[C@@H]2O)c(=O)n1, which “growth inhibition (GI)” value (PC-3 [12]) is on record?
Its value is “inactive”.

And the “growth inhibition (GI)” value (MDA-MB-231 [14])?
Its value is “inactive”.

What about the “growth inhibition (GI)” value (WM 266-4 [16]) of the same compound?
Its value is “inactive”.

And the “growth inhibition (GI)” value (A 172 [18])?
The value was “inactive”.

And the “growth inhibition (GI)” value (NCI-H1299 [20])?
Its value is “inactive”.
